Measured values published in patent publication US8466145B2, “Dipeptidyl peptidase IV inhibitors” (Orchid Chemicals & Pharmaceuticals Limited, priority 2009, dated 2013).

Assays:
[1] = target: T1, human recombinant Dipeptidyl peptidase IV enzyme (hrDPP IV) (Homo sapiens, UniProt P27487); experiment: DPP IV assay, cleavage of H-Gly-Pro-AMC by human recombinant DPP-IV enzyme; assay type: biochemical; details: for inhibition at 0.3 µM: 300 nM compound concentration
T1 construct: purchased R&D systems
T1 sequence (P27487 whole entry): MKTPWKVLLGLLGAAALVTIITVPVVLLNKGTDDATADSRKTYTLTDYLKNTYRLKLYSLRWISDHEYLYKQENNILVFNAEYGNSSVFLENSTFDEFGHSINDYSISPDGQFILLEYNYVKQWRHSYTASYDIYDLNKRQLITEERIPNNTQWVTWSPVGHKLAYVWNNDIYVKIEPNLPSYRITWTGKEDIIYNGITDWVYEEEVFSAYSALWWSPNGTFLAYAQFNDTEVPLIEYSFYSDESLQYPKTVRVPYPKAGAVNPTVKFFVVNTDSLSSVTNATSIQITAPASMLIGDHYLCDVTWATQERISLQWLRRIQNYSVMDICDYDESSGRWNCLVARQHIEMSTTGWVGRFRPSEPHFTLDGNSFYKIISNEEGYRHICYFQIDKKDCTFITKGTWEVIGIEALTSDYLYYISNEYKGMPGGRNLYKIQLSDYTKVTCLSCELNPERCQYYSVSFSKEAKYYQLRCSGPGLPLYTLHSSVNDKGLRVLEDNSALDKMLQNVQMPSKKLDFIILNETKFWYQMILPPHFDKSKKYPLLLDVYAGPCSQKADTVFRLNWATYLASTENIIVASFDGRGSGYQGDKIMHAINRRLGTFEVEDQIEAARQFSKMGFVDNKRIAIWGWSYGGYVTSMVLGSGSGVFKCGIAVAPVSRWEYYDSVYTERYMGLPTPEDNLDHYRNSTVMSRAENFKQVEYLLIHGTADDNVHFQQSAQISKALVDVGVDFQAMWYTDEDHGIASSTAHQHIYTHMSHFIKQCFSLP
Experimental: DPP IV activity was determined by the cleavage rate of 7-amino 4-methylcoumarin (AMC) from the substrate H-Gly-Pro-AMC. In brief, the assay was conducted by adding 3 ng of human recombinant Dipeptidyl peptidase IV enzyme (hrDPP IV, available commercially from R&D systems) in 70 μL of the assay buffer (25 mM HEPES, 140 mM NaCl and 1% BSA, pH 7.8) to a 96 well black flat bottom microtitre plate. Test compounds were added as 10 μL additions to all wells except blank and total activity wells. After incubation of test substance with enzyme for 60 minutes at room temperature, 10 μL of 100 μM substrate H-Gly-Pro-AMC was added. After mixing, the plate was left for 20 minutes at room temperature. Then the reaction was terminated by addition of 10 μL of 25% glacial acetic acid. Fluorescence was measured using Spectra Max Gemini XS (Molecular Devices, USA) at an excitation filter of 360 nm and emission filter of 460 nm.
Test compounds dissolved in DMSO were diluted with assay buffer at different concentrations and tested in duplicates. Percentage inhibition was calculated with respect to total activity. IC50 value was calculated using Prism Software.

[2] = target: T2, human recombinant Dipeptidyl peptidase 9 enzyme (hrDPP 9) (Homo sapiens, UniProt Q86TI2); experiment: DPP 9 assay, cleavage of H-Gly-Pro-AMC; assay type: biochemical; details: for Selectivity (Fold) DPP 9: selectivity for DPP-IV over DPP 9
T2 construct: purchased R&D systems
T2 sequence (Q86TI2 whole entry): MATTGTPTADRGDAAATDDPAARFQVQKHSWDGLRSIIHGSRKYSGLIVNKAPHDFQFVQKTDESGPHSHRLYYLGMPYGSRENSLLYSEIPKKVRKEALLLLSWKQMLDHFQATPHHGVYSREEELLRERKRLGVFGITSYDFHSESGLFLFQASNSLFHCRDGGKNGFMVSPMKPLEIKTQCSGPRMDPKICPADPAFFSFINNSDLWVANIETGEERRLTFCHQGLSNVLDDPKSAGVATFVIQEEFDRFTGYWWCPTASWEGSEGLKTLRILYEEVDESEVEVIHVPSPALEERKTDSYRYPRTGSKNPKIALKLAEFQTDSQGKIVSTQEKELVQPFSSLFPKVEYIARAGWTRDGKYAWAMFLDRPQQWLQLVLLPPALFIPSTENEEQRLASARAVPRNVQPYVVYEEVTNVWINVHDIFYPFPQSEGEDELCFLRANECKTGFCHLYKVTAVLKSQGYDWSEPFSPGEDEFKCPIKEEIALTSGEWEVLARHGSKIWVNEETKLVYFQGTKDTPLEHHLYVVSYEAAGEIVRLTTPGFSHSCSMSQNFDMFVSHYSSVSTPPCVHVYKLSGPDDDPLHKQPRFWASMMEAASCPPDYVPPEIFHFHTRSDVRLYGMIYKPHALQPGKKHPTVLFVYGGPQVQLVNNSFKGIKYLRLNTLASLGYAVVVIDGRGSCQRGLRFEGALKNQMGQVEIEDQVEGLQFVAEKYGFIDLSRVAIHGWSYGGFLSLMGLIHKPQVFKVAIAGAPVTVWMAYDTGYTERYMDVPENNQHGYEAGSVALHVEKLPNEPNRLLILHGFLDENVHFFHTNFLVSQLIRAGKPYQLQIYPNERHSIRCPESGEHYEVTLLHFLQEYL
Experimental: DPP 9 activity was determined by the cleavage rate of 7-amino 4-methylcoumarin (AMC) from the substrate H-Gly-Pro-AMC. In brief, the assay was conducted by adding 10 ng of human recombinant Dipeptidyl peptidase 9 enzyme (hrDPP 9, available commercially from R&D systems) in 70 μL of the assay buffer (50 mM TRIS and 5 mM EDTA, pH 7.7) to a 96 well black flat bottom microtitre plate. Test compound was added as 10 μL additions to all wells except blank and total activity wells. After incubation of test substance with enzyme for 30 minutes at room temperature, 10 μL of 100 μM substrate H-Gly-Pro-AMC was added. After mixing, the plate was left for 30 minutes at room temperature. Then the reaction was terminated by addition of 10 μL of 25% Glacial Acetic Acid. Fluorescence was measured using Spectra Max Gemini XS (Molecular Devices, USA) at an excitation filter of 360 nm and emission filter of 460 nm.
Test compound dissolved in DMSO were diluted with assay buffer at different concentrations and tested in duplicates. Percentage inhibition was calculated with respect to total activity. IC50 value was calculated by using Prism Software.

[3] = target: T3, human recombinant Dipeptidyl peptidase 8 enzyme (hrDPP 8) (Homo sapiens, UniProt Q6V1X1); experiment: DPP 8 assay, cleavage of H-Ala-Pro-AFC; assay type: biochemical; details: for Selectivity (Fold) DPP 8: selectivity for DPP-IV over DPP 8
T3 construct: purchased R&D systems
T3 sequence (Q6V1X1 whole entry): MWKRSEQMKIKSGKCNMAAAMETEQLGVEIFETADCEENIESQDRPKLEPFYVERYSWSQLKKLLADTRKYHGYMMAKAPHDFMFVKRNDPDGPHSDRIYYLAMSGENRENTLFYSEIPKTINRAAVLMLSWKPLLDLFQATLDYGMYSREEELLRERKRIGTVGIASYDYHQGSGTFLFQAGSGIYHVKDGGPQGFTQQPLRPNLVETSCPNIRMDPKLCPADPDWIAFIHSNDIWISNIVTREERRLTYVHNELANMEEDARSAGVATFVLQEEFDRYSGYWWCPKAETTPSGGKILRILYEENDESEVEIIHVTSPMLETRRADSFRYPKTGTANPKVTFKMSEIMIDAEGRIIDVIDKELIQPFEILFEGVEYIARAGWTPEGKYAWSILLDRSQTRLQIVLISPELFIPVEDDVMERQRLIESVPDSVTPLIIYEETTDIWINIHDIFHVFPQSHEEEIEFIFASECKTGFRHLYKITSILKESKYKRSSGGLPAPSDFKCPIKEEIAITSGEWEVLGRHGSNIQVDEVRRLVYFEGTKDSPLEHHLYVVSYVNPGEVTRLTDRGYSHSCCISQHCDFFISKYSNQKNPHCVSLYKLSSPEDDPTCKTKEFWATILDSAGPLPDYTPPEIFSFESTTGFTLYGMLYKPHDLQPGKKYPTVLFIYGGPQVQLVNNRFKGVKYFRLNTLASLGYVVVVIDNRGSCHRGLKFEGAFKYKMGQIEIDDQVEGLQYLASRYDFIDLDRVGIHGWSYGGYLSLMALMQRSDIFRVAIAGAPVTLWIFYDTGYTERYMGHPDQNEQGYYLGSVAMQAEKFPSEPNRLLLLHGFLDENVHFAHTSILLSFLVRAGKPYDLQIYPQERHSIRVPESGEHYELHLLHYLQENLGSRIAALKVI
Experimental: DPP 8 activity was determined by the cleavage rate of 7-amino 4-fluoromethylcoumarin (AFC) from the substrate H-Ala-Pro-AFC. In brief, the assay was conducted by adding 30 ng of human recombinant Dipeptidyl peptidase 8 enzyme (hrDPP 8, available commercially from R&D systems) in 70 μL of the assay buffer (50 mM TRIS and 5 mM EDTA, pH 7.7) to a 96 well black flat bottom microtitre plate. Test compound was added as 10 μL additions to all wells except blank and total activity wells. After incubation of test substance with enzyme for 30 minutes at room temperature, 10 μL of 100 μM substrate H-Ala-Pro-AFC was added. After mixing, the plate was left for 30 minutes at room temperature. Then the reaction was terminated by addition of 10 μL of 25% Glacial Acetic Acid. Fluorescence was measured using Spectra Max Gemini XS (Molecular Devices, USA) at an excitation filter of 400 nm and emission filter of 505 nm.
Test compound dissolved in DMSO were diluted with assay buffer at different concentrations and tested in duplicates. Percentage inhibition was calculated with respect to total activity. IC50 value was calculated using Prism Software.

C57BL/6 mice = experiment: Oral glucose tolerance test; assay type: in vivo; details: compound 10 mg/kg; for Antihyperglycemic activity, reduction in AUC (blood glucose), Time 6.00 hr: glucose 2 g/kg challenge 6.00 hr after compound administration, NA = No activity
Experimental: Effect of compound on glucose tolerance was examined in 7 week old C57BL/6 mice. Animals were kept for 18 h fasting and were challenged with glucose (2 g/kg) 30 min after compound (10 mg/kg) administration. Blood samples for glucose measurement were obtained by tail bleed pre dose and at serial time points after the glucose load (30, 60 and 120 minutes). Blood glucose estimation was done by using ContourTS active strips on glucometer (Bayer). To find the time response on glucose excursion, animals were challenged with glucose at different time point after compound administration (0.5, 2, 4, 6, 8, 12 or 24 hours) at blood glucose was measured at pre (0 minute) and post (30, 60 and 120 minutes) glucose load.
Results of blood glucose were expressed as area under curve (AUC) was calculated using Prism software.

Compound | IC50 [1] [µM] | melting point [°C] | Selectivity (Fold) DPP 9 [2] [Fold] | inhibition at 0.3 µM [1] [%] | further results
CC1(NCC(=O)N2C[C@@H](F)C[C@H]2C#N)CCC(CS(=O)(=O)c2ccc(S(C)(=O)=O)cc2)C1(C)C (stereo in doubt) [Example 45, (2S,4S)-4-Fluoro-1-(2-((1S,3R)-1,2,2-trimethyl-3-((4-(methylsulfonyl)phenylsulfonyl)methyl)cyclopentylamino)acetyl)pyrrolidine-2-carbonitrile] | 0.059 | 211 to 216 |  |  | IC50 ([2]; human recombinant DPP 9, read-out: DPP 9 (cell printed in μM in the Selectivity column)): > 300 µM; IC50 ([3]; human recombinant DPP 8, read-out: DPP 8 (cell printed in μM in the Selectivity column)): > 300 µM
CC1(C)[C@H](Cc2noc(C(F)(F)F)n2)CC[C@]1(C)NCC(=O)N1C[C@@H](F)C[C@H]1C#N [Example 56, (2S,4S)-4-Fluoro-1-(2-((1S,3S)-1,2,2-trimethyl-3-((5-(trifluoromethyl)-1,2,4-oxadiazol-3-yl)methyl)cyclopentylamino)acetyl)pyrrolidine-2-carbonitrile] | 0.0196 | 130 to 131 |  | 95.7 | Antihyperglycemic activity, reduction in AUC (blood glucose), Time 6.00 hr (C57BL/6 mice): 7.07%
CC1(C)[C@H](Cc2noc(-c3ccc(F)cc3)n2)CC[C@]1(C)NCC(=O)N1C[C@@H](F)C[C@H]1C#N [Example 62, (2S,4S)-4-Fluoro-1-(2-((1S,3S)-3-((5-(4-fluorophenyl)-1,2,4-oxadiazol-3-yl)methyl)-1,2,2-trimethylcyclopentylamino)acetyl)pyrrolidine-2-carbonitrile] |  | 158 to 216 |  | 79.8 | 
CC1(C)[C@H](Cc2noc(-c3ccncc3)n2)CC[C@]1(C)NCC(=O)N1C[C@@H](F)C[C@H]1C#N [Example 63, (2S,4S)-4-Fluoro-1-(2-((1S,3S)-1,2,2-trimethyl-3-((5-(pyridin-4-yl)-1,2,4-oxadiazol-3-yl)methyl)cyclopentylamino)acetyl)pyrrolidine-2-carbonitrile] | 0.0192 | 180 to 184 | >1850 | 92.6 | 
CC1(C)[C@H](NCC(=O)N2C[C@@H](F)C[C@H]2C#N)CC[C@]1(C)c1nc(-c2ccc(F)cc2)no1 [Example 64, (2S,4S)-4-Fluoro-1-(2-((1R,3S)-3-(3-(4-fluorophenyl)-1,2,4-oxadiazol-5-yl)-2,2,3-trimethylcyclopentylamino)acetyl)pyrrolidine-2-carbonitrile] | 0.0761 |  | >250 |  | Selectivity (Fold) DPP 8 [3]: >450 Fold
CC1(C)[C@@H](NCC(=O)N2C[C@@H](F)C[C@H]2C#N)CC[C@@]1(C)c1nc(-c2cccnc2)no1 [Example 68, (2S,4S)-4-Fluoro-1-(2-((1S,3R)-2,2,3-trimethyl-3-(3-(pyridin-3-yl)-1,2,4-oxadiazol-5-yl)cyclopentylamino)acetyl)pyrrolidine-2-carbonitrile] | 0.0402 | 126 to 130 | >15 |  | Selectivity (Fold) DPP 8 [3]: >250 Fold
CC1(C)[C@H](NCC(=O)N2C[C@@H](F)C[C@H]2C#N)CC[C@]1(C)c1nc(-c2cccnc2)no1 [Example 69, (2S,4S)-4-Fluoro-1-(2-((1R,3S)-2,2,3-trimethyl-3-(3-(pyridin-3-yl)-1,2,4-oxadiazol-5-yl)cyclopentylamino)acetyl)pyrrolidine-2-carbonitrile] | 0.0186 | 70 to 75 | >150 |  | Selectivity (Fold) DPP 8 [3]: >1800 Fold
CC1(C)[C@H](NCC(=O)N2C[C@@H](F)C[C@H]2C#N)CC[C@]1(C)c1nc(-c2ccncc2)no1 [Example 71, (2S,4S)-4-Fluoro-1-(2-((1R,3S)-2,2,3-trimethyl-3-(3-(pyridin-4-yl)-1,2,4-oxadiazol-5-yl)cyclopentylamino)acetyl)pyrrolidine-2-carbonitrile] | 0.0228 | 167 to 171 |  |  | 

Second part, led by results:

IC50 [1] [µM] | melting point [°C] | Selectivity (Fold) DPP 9 [2] [Fold] | inhibition at 0.3 µM [1] [%] | Compound | further results
0.00729 | 186 to 190 | >1250 |  | CC1(C)[C@H](CN2CCCCS2(=O)=O)CC[C@]1(C)NCC(=O)N1C[C@@H](F)C[C@H]1C#N [Example 30, (2S,4S)-1-(2-((1S,3R)-3-[(1,1-Dioxido-1,2-thiazinan-2-yl)methyl]-1,2,2-trimethylcyclopentylamino)acetyl)-4-fluoropyrrolidine-2-carbonitrile] | Antihyperglycemic activity, reduction in AUC (blood glucose), Time 6.00 hr (C57BL/6 mice): 30.90%
0.00439 | 131 to 133 | >9000 |  | Cc1nc(C[C@@H]2CC[C@](C)(NCC(=O)N3C[C@@H](F)C[C@H]3C#N)C2(C)C)no1 [Example 55, (2S,4S)-4-Fluoro-1-(2-((1S,3S)-1,2,2-trimethyl-3-((5-methyl-1,2,4-oxadiazol-3-yl)methyl)cyclopentylamino)acetyl)pyrrolidine-2-carbonitrile] | Antihyperglycemic activity, reduction in AUC (blood glucose), Time 0.50 hr (C57BL/6 mice; glucose 2 g/kg challenge 0.50 hr after compound administration): 48.30%; Antihyperglycemic activity, reduction in AUC (blood glucose), Time 4.00 hr (C57BL/6 mice; glucose 2 g/kg challenge 4.00 hr after compound administration): 45.69%; Antihyperglycemic activity, reduction in AUC (blood glucose), Time 6.00 hr (C57BL/6 mice): 28.28%; Antihyperglycemic activity, reduction in AUC (blood glucose), Time 8.00 hr (C57BL/6 mice; glucose 2 g/kg challenge 8.00 hr after compound administration): 18.63%
0.0138 |  | >7271 | 96.2 | CC(C)c1nc(C[C@@H]2CC[C@](C)(NCC(=O)N3C[C@@H](F)C[C@H]3C#N)C2(C)C)no1 [Example 61, (2S,4S)-4-Fluoro-1-(2-((1S,3S)-3-((5-isopropyl-1,2,4-oxadiazol-3-yl)methyl)-1,2,2-trimethylcyclopentylamino)acetyl)pyrrolidine-2-carbonitrile methanesulfonate] | 
 | 82 to 85 |  | 79.2 | CC(C)c1noc([C@]2(C)CC[C@H](NCC(=O)N3C[C@@H](F)C[C@H]3C#N)C2(C)C)n1 [Example 67, (2S,4S)-4-Fluoro-1-(2-((1S,3R)-3-(3-isopropyl-1,2,4-oxadiazol-5-yl)-2,2,3-trimethylcyclopentylamino)acetyl)pyrrolidine-2-carbonitrile] | 
 | 122 to 126 |  | 4.25 | CN1C[C@]2(C)CC[C@](NCC(=O)N3C[C@@H](F)C[C@H]3C#N)(C1)C2(C)C [Example 76, (2S,4S)-4-Fluoro-1-(2-((1R,5R)-3,5,8,8-tetramethyl-3-azabicyclo[3.2.1]octan-1-ylamino)acetyl)pyrrolidine-2-carbonitrile] | 
0.00403 | 152 to 154 |  | 93.9 | CC1(C)[C@@H](NCC(=O)N2C[C@@H](F)C[C@H]2C#N)CC[C@@]1(C)CCCn1cncn1 [Example 83, (2S,4S)-1-(2-((1S,3R)-3-(3-(1H-1,2,4-Triazol-1-yl)propyl)-2,2,3-trimethylcyclopentylamino)acetyl)-4-fluoropyrrolidine-2-carbonitrile] | 
